The values that follow are results of earlier work, collected in US20050014769A1, “Use of endothelin receptor antogonists for the treatment of tumour diseases” (priority 2001, published 2005).

Square brackets hold non-standard residues; d marks the D form. Peptide text beside a SMILES is read from it.

The subject of series [1] is pancreas tumour cells (ASPC-1). To be noted: in vivo; AACR Abstract No. 3365, 2000.
Series [2] has as its system primary ovarian carcinoma cells. To be noted: Bagnato A et al. Cancer Res 59, 720-727, 1999.
The test system of a further series is ovarian carcinoma cells. As to conditions: Del Bufalo D et al., Molecular Pharmacology 61/3, 2002.
The subject of series [3] is intestinal cancer cell lines. As to conditions: Ali H et al. Gut 47, 685-688, 2000.
The next series relates to metastasis formation. As to conditions: rat metastasis model; Asham E et al. British Journal of Cancer 81/11, 2001.
Series [4] concerns HPV positive cervical carcinomas. As to conditions: cervical carcinoma; Venuti A et al., FASEB 14/14, 2279-2283, 2000.
Another series has as its system melanoma cells. As to conditions: in vitro; AACR Abstract No. 358, 2002.
The subject of series [5] is prostate cancer cell lines. As to conditions: in vitro; Nelson J B et al. Cancer Research 56, 663-668, 1996.

On to `COc1ccccc1Oc1c(NS(=O)(=O)c2ccc(C(C)C)cn2)nc(-c2ccnc(-c3nnn[nH]3)c2)nc1OCCO` [Ro 61-612/001], for which, in series [1], the “proliferation of pancreas tumour cells (ASPC-1)” value is listed as “inhibits the proliferation”.

With `CC(C)C[C@@H]1NC(=O)[C@@H](C(C)C)NC(=O)[C@@H]2CCCN2C(=O)[C@@H](CC(=O)O)NC(=O)[C@@H](Cc2c[nH]c3ccccc23)NC1=O` [BQ123] (cyclo(L[dW][dD]P[dV])), in series [2], the “proliferation of tumour cells” value was “inhibits the proliferation”. In addition, in the series with ovarian carcinoma cells, the “ET-1 protection against apoptosis” value is given as “can be eliminated”. The “ET-1 stimulated proliferation of intestinal cancer cell lines” value in series [3] is on record as “can be inhibited”. In addition, in the series on metastasis formation, the metastasis formation result was “inhibits metastasis formation”. Moreover, in series [4], the “ET-1 stimulated proliferation of tumour cells” value is recorded as “can be inhibited”.

Turning to `COc1ccccc1Oc1c(NS(=O)(=O)c2ccc(C(C)(C)C)cc2)nc(-c2ncccn2)nc1OCCO` [Bosetan], the “proliferation of melanoma cells” value with melanoma cells is given as “inhibits the proliferation”.

For the compound `CCCCN(CCCC)C(=O)CN1C[C@H](c2ccc3c(c2)OCO3)[C@@H](C(=O)O)[C@@H]1c1ccc(OC)cc1` [Atrasentan], the “growth of various prostate cancer cell lines” value in series [5] is “inhibits the growth”.
